In US4091115A, “7-Amino-benzocycloheptenes” (Roussel Uclaf, priority 1975, dated 1978):
Structures can show the parent of a compound that is named as a salt.

Tests used:
[1] = tested on: effects of L-dopa; test: Potentiation of effects of L-dopa in mice pretreated with iproniazide; assay type: in vivo, male mice; details: Mus musculus, ip; i.p. one hour before L-dopa 100 mg/kg i.p.; iproniazide 75 mg/kg i.p. 18 hours before; read-out: ED50, dose which potentiates by 50% the L-dopa effects
Method: The administration of L-dopa to mice pretreated 18 hours previously with iproniazide produced certain number of symptoms; muscular hypertonically, hyperactivity, agitation, crying, aggressiveness, salivation and exophthalmy. The intensity of these effects is potentiated by administration of an antidepressant one hour before the administration of L-dopa. Male mices received intraperitoneally 75 mg/kg of iproniazide 18 hours before the start of the test and the tested product was intraperitoneally administered in aqueous solution in increasing doses. One hour later, L-dopa was intraperitoneally administered at a dose of 100 mg/kg and the different symptoms were observed 15 and 30 minutes later. They were evaluated on a scale of 0 to 3 for each animal and the totals for each dose were determined.

[2] = Acute toxicity in mice; assay type: in vivo; details: mouse, in vivo, ip, intraperitoneal
Method: (§1) The LD50 dose which kills 50% of mice after intraperitoneal administration of the tested compounds was determined 48 hours later and the results are reported in Table IV.

[3] = tested on: effects of monoamine oxidase inhibitor (nialamide); test: Potentiation of effects of monoamine oxidase inhibitor (nialamide) in mice; assay type: in vivo; design: key: Potentiation of the effects of nialamide for the tested product was expressed in increasing number of + signs for a determined dose in mg/kg; ++: Potentiation of the effects of nialamide for the tested product was expressed in increasing number of + signs for a determined dose in mg/kg; +++: Potentiation of the effects of nialamide for the tested product was expressed in increasing number of + signs for a determined dose in mg/kg; details: nialamide 100 mg/kg i.p. 30 minutes before, actimetry 6 hours
Method: The administration of a monoamine oxidase inhibitor to mice induces a hyperactive movement of the animals which is able to be potentiated by an antidepressant. Using the procedure of Carlsson et al [Brain Research, Vol. 12 (1969), p. 456], a dose of 100 mg/kg of nialamide was intraperitoneally administered to mice 30 minutes before the intraperitoneal administration of the tested product and the values of actimetric measurements were recorded every 30 minutes for 6 hours. Potentiation of the effects of nialamide for the tested product was expressed in increasing number of + signs for a determined dose in mg/kg.

[4] = tested on: effects of 5-HTP; test: Potentiation of effects of 5-HTP in mice; assay type: in vivo; details: Mus musculus, 1 h; i.p. one hour before 5-HTP 200 mg/kg i.p.; trembling observed for an hour; read-out: MAD (minimal active dose), potentiation of 5-HTP effects
Method: The administration of 5-hydroxytryptophane (5-HTP) to mice pretreated with an antidepressant induces in the animals a particular behavior, namely the appearance of trembling. The tested products were administered intraperitoneally at increasing doses one hour before the intraperitoneal administration of 5-HTP at an dose of 200 mg/kg. The symptoms were observed every 15 minutes for an hour to determine the miminal active dose (MAD) of the test product and the results are reported in Table II.

[5] = tested on: serotonine (5HT) uptake in synaptosomes; test: Inhibition of Serotonine uptake in vitro (brain synaptosomes); assay type: biochemical, female rat 19 to 21 days old; details: rat whole brain synaptosomes, 37° C, 5 minutes, 14 C-5HT 10^-7 M; read-out: I.C. 50, Test in vitro (inhibition of 14 C-5HT uptake)
Method: The inhibition of serotonine (5HT) uptake was measured in impure synaptosomes prepared from the entire brain of a female rat 19 to 21 days old using the technique of Kannengiesser et al [Biochemical Pharmacology, Vol. 22, (1973) p. 73]. Diverse concentrations of the products were placed in an incubator with the preparation at 37° C for 5 minutes in the presence of 14 C-5HT at a concentration of 10^-7 M. The 50% inhibiting concentration (IC50), dose which inhibits by 50% the uptake of 14 C-5HT in the synaptosomes was determined graphically and the IC50 dose for the compounds is reported in Table V.

[6] = tested on: uptake of 14 C-5HT in synaptosomes; test: Inhibition of Serotonine uptake in vivo (synaptosomes from treated rats); design: species or system female rats 19 to 21 days old; key: the activity was expressed in increasing number of + signs; ++: the activity was expressed in increasing number of + signs; +++: the activity was expressed in increasing number of + signs; details: i.p. 5 to 20 mg/kg; brain removed after 30 minutes
Method: The tested products were intraperitoneally administered to groups of female rats 19 to 21 days old at doses of 5 to 20 mg/kg. After 30 minutes, the brain was removed and synaptosomes were prepared and placed in an incubator in the presence of 14 C-5HT as indicated in the previous test.

[7] = tested on: mice; test: Acute toxicity in mice; assay type: in vivo; details: intraperitoneal, 48 hours
Method: as §1

## CN(C)C1C=C(c2ccccc2)c2ccccc2CC1 (stereo not shown) [Example 3, 7-dimethylamino-9-phenyl-6,7-dihydro [5H] benzocycloheptene hydrochloride]
[1]
  ED50: 2 mg/kg
[2]
  LD50 at 48 h: 100 mg/kg

## CN(C)C1CCc2ccccc2CC1 [Example 2, 7-dimethylamino-6,7,8,9-tetrahydro [5H] benzocycloheptene hydrochloride]
[3]; 20 mg/kg i.p.
  Potentiation of nialamide: +++
[3]; 1-5 mg/kg i.p.
  Potentiation of nialamide: +
[1]
  ED50: 5 mg/kg
[2]
  LD50 at 48 h: 100 mg/kg

## CNC1C=Cc2ccccc2CC1 (stereo not shown) [Example 6, 7-methylamino-6,7-dihydro [5H] benzocycloheptene hydrochloride]
[3]; 5 mg/kg i.p.
  Potentiation of nialamide: ++
[3]; 20 mg/kg i.p.
  Potentiation of nialamide: +++
[4]
  minimal effective dose: 5 mg/kg
[1]
  ED50: 10 mg/kg
[2]
  LD50 at 48 h: 75 mg/kg
[5]
  IC50: 1900 nM
[6]
  Test in vivo (inhibition of 14 C-5HT uptake): ++

## CNC1CCc2ccccc2C(c2ccccc2)C1 (stereo not shown) [Example 9, 7-methylamino-5-phenyl-6,7,8,9-tetrahydro [5H] benzocycloheptene hydrochloride]
[4]
  minimal effective dose: 20 mg/kg
[1]
  ED50: 5 mg/kg
[2]
  LD50 at 48 h: 50 mg/kg

## CN(C)C1CCc2ccccc2C(c2ccccc2)C1 (single isomer, unassigned) [Example 4, 7-dimethylamino-5-phenyl-6,7,8,9-tetrahydro [5H] benzocycloheptene hydrochloride]
[2]
  LD50 at 48 h: 50 mg/kg

## CNC1C=Cc2cccc(Cl)c2CC1 (stereo not shown) [Example 11, 4-chloro-7-methylamino-6,7-dihydro [5H] benzocyclopheptene hydrochloride]
[3]; 5 mg/kg i.p.
  Potentiation of nialamide: +
[3]; 20 mg/kg i.p.
  Potentiation of nialamide: +++
[4]
  minimal effective dose: 20 mg/kg
[1]
  ED50: 20 mg/kg
[2]
  LD50 at 48 h: 75 mg/kg
[5]
  IC50: 400 nM
[6]
  Test in vivo (inhibition of 14 C-5HT uptake): +

## CN(C)C1C=Cc2ccccc2CC1 (stereo not shown) [Example 1, 7-dimethylamino-6,7-dihydro [5H] benzocycloheptene hydrochloride]
[3]; 20 mg/kg i.p.
  Potentiation of nialamide: ++
[4]
  minimal effective dose: 20 mg/kg
[1]
  ED50: < 5 mg/kg
[2]
  LD50 at 48 h: 75 mg/kg
[5]
  IC50: 510 nM
[6]
  Test in vivo (inhibition of 14 C-5HT uptake): ++

## C=CCNC1C=Cc2ccccc2CC1 (stereo not shown) [Example 14, 7-allylamino-6,7-dihydro [5H] benzocycloheptene hydrochloride]
[3]; 20 mg/kg i.p.
  Potentiation of nialamide: ++
[4]
  minimal effective dose: 50 mg/kg
[1]
  ED50: 20 mg/kg
[2]
  LD50 at 48 h: 150 mg/kg

## CNC1C=Cc2cc(Cl)ccc2CC1.Cl (stereo not shown) [Example 10 (2-chloro derivative), 2-chloro-7-methylamino-6,7-dihydro [5H] benzocycloheptene hydrochloride]
[3]; 1 mg/kg i.p.
  Potentiation of nialamide: +++
[3]; 5 mg/kg i.p.
  Potentiation of nialamide: +++
[4]
  minimal effective dose: 10 mg/kg
[1]
  ED50: < 5 mg/kg
[2]
  LD50 at 48 h: 75 mg/kg
[5]
  IC50: 350 nM
[6]
  Test in vivo (inhibition of 14 C-5HT uptake): +++

## CN(C)C1CCc2ccccc2C(c2ccccc2)C1 (single isomer, unassigned) [Example 5, 7-dimethylamino-5-phenyl-6,7,8,9-tetrahydro [5H] benzocycloheptene hydrochloride]
[3]; 1 mg/kg i.p.
  Potentiation of nialamide: +
[3]; 20 mg/kg i.p.
  Potentiation of nialamide: +++
[4]
  minimal effective dose: 10 mg/kg
[1]
  ED50: 2 mg/kg
[7]
  LD50: 50 mg/kg
[5]
  IC50: 150 nM
[6]
  Test in vivo (inhibition of 14 C-5HT uptake): +++

## CCNC1C=Cc2ccccc2CC1 (stereo not shown) [Example 12, 7-ethylamino-6,7-dihydro [5H] benzocycloheptene hydrochloride]
[4]
  minimal effective dose: 20 mg/kg
[1]
  ED50: 10 mg/kg
[2]
  LD50 at 48 h: 75 mg/kg

## CN1CCN(C2C=Cc3ccccc3CC2)CC1 (stereo not shown) [Example 13, 7-(4-methylpiperazin-1-yl)-6,7,-dihydro [5H] benzocycloheptene difumarate]
[3]; 20 mg/kg i.p.
  Potentiation of nialamide: ++
[4]
  minimal effective dose: 50 mg/kg
[1]
  ED50: 20 mg/kg
[2]
  LD50 at 48 h: 250 mg/kg

## CNC1C=C(c2ccccc2)c2ccccc2CC1 (stereo not shown) [Example 8, 7-methylamino-9-phenyl-6,7-dihydro [5H] benzocycloheptene hydrochloride]
[1]
  ED50: 5 mg/kg
[2]
  LD50 at 48 h: 50 mg/kg

## CNC1CCc2ccccc2CC1 [Example 7, 7-methylamino-6,7,8,9-tetrahydro [5H] benzocycloheptene hydrochloride]
[3]; 5 mg/kg i.p.
  Potentiation of nialamide: +
[3]; 20 mg/kg i.p.
  Potentiation of nialamide: ++
[1]
  ED50: 10 mg/kg
[2]
  LD50 at 48 h: 100 mg/kg
